The values below come from patent US20240285670A1, “THERAPEUTIC TREATMENT OF TUMORS BY BLOCKING THE HEME SYNTHESIS-EXPORT AXIS” (Università degli Studi di Torino, priority 2021, published 2024).

Common to all, as to format: cell-based, human
In one data set the test system is Caco2 cells. The data set is described as follows: Flow cytometric analysis of apoptosis in Caco2 cells. As to conditions: FLVCR1a-silenced vs scramble shRNA, synchronized Caco2 cells. The source says: (§1) (A) Proliferation of Caco2 cells assessed by crystal violet staining at the indicated days; bar=1000 μm. […] Staining quantification is reported in the bar graph as percentage of crystal violet stained area. Data represent mean±SEM, n=4. For statistical analyses, a two-way analysis of variance was used, followed by the Bonferroni correction for multiple group comparisons; *=p<0.05, ***=p<0.001. (B) Caco2 cells viability the day of plating (day 0) and three days after plaiting (day 3). The measure is considered a readout of cell proliferation. […] Data represent mean±SEM, n=3 wells. For statistical analyses, a two-way analysis of variance was used, followed by the Bonferroni correction for multiple group comparisons; *=p<0.05, **=p<0.01. (C, D, E) Representative flow cytometric analyses of apoptosis in synchronized Caco2 (C), SKCO1 (D) and C80 (E) cells. […] Data represent mean±SEM, n=4 wells pooled from two independent experiments. For statistical analyses, an unpaired Student's t-test was used; *=p<0.05, **=p<0.01. […]
(§2) Stained cells were analyzed using a FACSCanto II cytofluorimeter and processed with BD FACSDIVA Software v8.1 (BD Biosciences, Milan, IT; http://www.bdbiosciences.com/instruments/software/facsdiva/index.jsp/ RRID:SCR_001456), acquiring at least 10,000 events per sample or 25,000 cells per sample for cell cycle experiments.

For the next data set, the system named is C80 cells. The data set is described as follows: Activity of mitochondrial ETC complexes I-IV in C80 cells. Particulars: FLVCR1a-silenced vs scramble shRNA C80 cells. The text has this:
(A, C, E) Activities of the mitochondrial electron transport chain complexes I-IV. FLVCR1a-silenced Caco2 (A), SKCO1 (C) or C80 cells (E) are compared to cells expressing a scramble shRNA. Results were expressed as nmol NAD^+/min/mg mitochondrial protein for complex I, nmol reduced cytochrome c/min/mg mitochondrial protein for complexes II-III, nmol oxidized cytochrome c/min/mg mitochondrial protein for complex IV. Data represent mean±SEM, n=3. For statistical analyses, an unpaired Student's t-test was used; *=p<0.05, **=p<0.01. (B, D, F) Mitochondrial ATP levels measured by a bioluminescent assay kit. FLVCR1a-silenced Caco2 (B), SKCO1 (D) or C80 cells (F) are compared to cells expressing a scramble shRNA. Results are expressed as nmol/mg mitochondrial proteins. Data represent mean±SEM, n=3. […] Results were expressed as nmol NAD^+/min/mg mitochondrial protein for complex I, nmol reduced cytochrome c/min/mg mitochondrial protein for complexes II-III, nmol oxidized cytochrome c/min/mg mitochondrial protein for complex IV. […] (H) Mitochondrial ATP levels measured by a bioluminescent assay kit in Caco2 cells overexpressing FLVCR1a (indicated as FLVCR1a+) compared to cells stably transduced with an empty vector. Results are expressed as nmol/mg mitochondrial proteins. […]
The activity of mitochondria respiration complexes was measured according to (Wibom et al., 2002).

The next data set relates to SKCO1 cells. Nature of the data set: Flow cytometric analysis of apoptosis in SKCO1 cells. Particulars: FLVCR1a-silenced vs scramble shRNA, synchronized SKCO1 cells.
From the text: as §1, §2
Background: In flow cytometry, cells or beads pass a laser one at a time.

Consider “FLVCR1a shRNA: shRNA specifically down-regulating FLVCR1a without targeting FLVCR1b; pLKO.1 lentiviral clone TRCN0000059599, antisense SEQ ID No.: 2 (antisense TTGCTAATGATGCTGTACTGG; sense CCAGTACAGCATCATTAGCAA)”, for which, in the data set on Caco2 cells, the basal apoptosis result is on record as “higher extent of basal apoptosis”. In the data set on C80 cells, the ETC complexes activity entry is reported as “increased ETC complexes activity”. For the same substance, the apoptosis result in the data set with SKCO1 cells was “increased apoptosis”.
